Key:
[1] = system: primary human mesenchymal stem cells (MSCs); experiment: Human osteoblast differentiation in vitro (mineralization); format: cell-based; settings: compound included in the MSC osteoblast differentiation culture system
Procedure: This cell-based assay uses a 96-well format in which primary human mesenchymal stem cells (MSCs) are differentiated into osteoblasts following an established protocol that results in a high rate of differentiation. To induce osteoblast differentiation, MSC are seeded at a low density (3.1×10^3 cells per cm2) and cultured in media containing β-glycerolphosphate and ascorbic acid for fourteen days. For testing of candidate compounds, MSCs will be differentiated in the presence of the compounds for the duration of the 14-day culture period. Osteoblast differentiation is then assayed via a simple colorometric readout that reflects the levels of cellular alkaline phosphates (ALP), an enzyme present in differentiating osteoblasts but absent in MSCs. ALP levels are then normalized to cell number, which is measured by utilizing the Alamar blue assay. Mineralization can be assessed by staining with xylenol orange. The screen and the 96-well format will allow multiple compounds to be tested at various concentrations. A substantial number of compounds may be identified that are active at a nanomolar concentration.

[2] = target: T1, WWP1 (Mus musculus, UniProt Q8BZZ3); experiment: OSE2 (osteocalcin) luciferase reporter assay, primary screen; format: cell-based, murine
T1 construct: The LKO.1 lentiviral vectors expressing RNAi against murine WWP1; endogenous in cells; host or cells: C3H10T1/2 (murine mesenchymal stem cell line)
Procedure: A cell-based reporter assay was modified for use as a primary screen. It is based on the inhibition by WWPI of Runx2 activation of a target promoter sequence from the osteocalcin gene. The murine mesenchymal stem cell line, C3H10T1/2 was maintained in DMEM+10% FBS. Cells were seeded overnight in a 12-wlel dish at 8×10^4 cells/well and transfected with the multimerized osteocalcin (OSE) luciferase (6×OSE2) reporter gene plasmid and combinations of expression constructs, as indicated, by Effectene (Qiagen). Total amounts of transfected DNA were kept constant by supplementing with control empty expression vector plasmids. All cells were cotransfected with pRL-TK (Promega) to control for transfection efficience. Forty-eight hours after transfection, cells were harvested and lysed in 1×Passive Lysis Buffer (Promega) and luciferase assays performed using the Dual-Luciferase Reporter Assay System (Promega).
Runx2 transactivation function in luciferase reporter assays was enhanced in WWPli cells. The LKO.1 lentiviral vectors expressing RNAi against murine WWP1, and GFP were cotransfected along with D8.9 and VSV-G plasmids into […] cells utilizing Effectene (Qiagen).

T1 sequence (Q8BZZ3 whole entry): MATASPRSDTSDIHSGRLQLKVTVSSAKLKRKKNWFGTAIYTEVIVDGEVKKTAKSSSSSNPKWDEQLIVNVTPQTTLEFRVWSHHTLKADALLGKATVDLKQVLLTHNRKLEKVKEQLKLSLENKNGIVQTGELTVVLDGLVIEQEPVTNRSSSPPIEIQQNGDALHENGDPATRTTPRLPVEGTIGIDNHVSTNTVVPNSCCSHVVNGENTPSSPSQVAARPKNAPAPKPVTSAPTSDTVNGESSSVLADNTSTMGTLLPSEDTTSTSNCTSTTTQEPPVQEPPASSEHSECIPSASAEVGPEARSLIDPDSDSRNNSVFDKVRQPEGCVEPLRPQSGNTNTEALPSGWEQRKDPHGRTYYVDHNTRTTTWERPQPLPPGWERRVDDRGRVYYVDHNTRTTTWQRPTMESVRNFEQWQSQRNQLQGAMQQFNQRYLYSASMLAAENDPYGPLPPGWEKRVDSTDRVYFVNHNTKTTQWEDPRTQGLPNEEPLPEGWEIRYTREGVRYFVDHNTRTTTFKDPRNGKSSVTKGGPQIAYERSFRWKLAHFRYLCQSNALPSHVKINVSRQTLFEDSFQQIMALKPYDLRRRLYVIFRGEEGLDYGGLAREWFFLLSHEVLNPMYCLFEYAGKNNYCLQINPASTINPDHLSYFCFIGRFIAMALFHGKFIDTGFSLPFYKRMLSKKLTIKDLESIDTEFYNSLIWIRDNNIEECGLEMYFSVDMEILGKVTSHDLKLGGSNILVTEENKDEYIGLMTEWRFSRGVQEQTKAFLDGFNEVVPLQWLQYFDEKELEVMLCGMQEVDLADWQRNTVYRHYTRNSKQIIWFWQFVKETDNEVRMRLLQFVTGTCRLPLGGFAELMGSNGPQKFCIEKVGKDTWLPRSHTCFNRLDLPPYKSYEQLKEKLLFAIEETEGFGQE

Runx2 transactivation in the OSE2 reporter assay ([2]; C3H10T1/2 cells, 6xOSE2 luciferase reporter): increase Runx2 transactivation
WWP1 inhibition inferred from the OSE2 reporter assay ([2]; concluded from increased Runx2 transactivation): inhibit WWP1
SMILES: O=c1[nH]cc(CS(=O)(=O)Cc2c[nH]c(=O)[nH]c2=O)c(=O)[nH]1 [5,5′-(sulfonyldimethylene)diuracil]
formation of mineralized nodules [1]: substantially increased formation of mineralized nodules
